{"source": "patent US6821735B1", "about": "“Protein involved in abscisic acid signalling” (Plant BioScience Limited, priority 1997, dated 2004)", "molecules": {"B1": {"name": "SYR: syntaxin-related protein of N. tabacum, 300 amino acids, SEQ ID NO:2 (protein, listed as Nicotiana tabacum)", "chain": "MNDLFSGSFSRFRADDQSDSHAIEMGDITGGVNLDKFFEDVEAIKDELKGLEKIYSQLQSSHEKSKTLHNAKAVKDLRSNMDNDVSMALKKAKFIKVRLEALDRSNAANRSLPGCGPGSSSDRTRTSVVNGLRKKLQESMNQFNELRQKMASEYRETVQRRYYTVTGENPDEAVLDTLISTGQSETFLQKAIQEQGRGQVMDTVMEIQERHEAVKELERNLKELHQVFLDMAVLVESQGAQLDDIESQVNRANSFVRGGAQQLQVARKHQKNTRKWTCFAIILLLIIILVVVLSIQPWKK"}, "B2": {"name": "Sp2: truncated Nt-Syr protein, amino acids 1-279 of SEQ ID NO:2, N-His-tagged (protein, listed as Nicotiana tabacum)", "chain": "MNDLFSGSFSRFRADDQSDSHAIEMGDITGGVNLDKFFEDVEAIKDELKGLEKIYSQLQSSHEKSKTLHNAKAVKDLRSNMDNDVSMALKKAKFIKVRLEALDRSNAANRSLPGCGPGSSSDRTRTSVVNGLRKKLQESMNQFNELRQKMASEYRETVQRRYYTVTGENPDEAVLDTLISTGQSETFLQKAIQEQGRGQVMDTVMEIQERHEAVKELERNLKELHQVFLDMAVLVESQGAQLDDIESQVNRANSFVRGGAQQLQVARKHQKNTRKWTCF", "modifications": "N-terminal His tag"}}, "key": {"[1]": {"test_system": "outward-rectifying K^+ channels of guard cells", "assay": "Guard cell voltage clamp: ABA response of the outward-rectifying K^+ current (IK,out)", "assay_type": "cell-based, Nicotiana"}, "SYR transcript": {"test_system": "SYR transcript", "assay": "Northern analysis of SYR expression in leaves of treated plants"}, "[2]": {"test_system": "Xenopus Ca^2+-dependent Cl^− channels", "assay": "ABA response of Xenopus oocytes injected with N. tabacum poly(A)+ RNA, two-electrode voltage clamp", "assay_type": "cell-based, Xenopus laevis"}, "[3]": {"test_system": "anion current of guard cells", "assay_type": "cell-based, N. benthamiana"}, "[4]": {"test_system": "inward-rectifying K^+ channels of guard cells", "assay_type": "cell-based, N. benthamiana"}, "[5]": {"test_system": "inward-rectifying K^+ channels of guard cells", "conditions": "stated as normal; cited from earlier work"}, "[6]": {"conditions": "cited from earlier work"}, "[7]": {"test_system": "inward-rectifying K^+ currents of guard cells", "assay_type": "cell-based, V. faba", "conditions": "after 300 s"}, "[8]": {"test_system": "current endogenous to the oocytes", "assay": "Uninjected oocytes in 25 mM K^+: effect of channel inhibitors", "conditions": "25 mM K^+ in the bath"}, "[9]": {"test_system": "oocyte endogenous voltage-dependent K^+ channels", "assay": "Voltage clamp of oocytes expressing SYR: current characterization and channel inhibitors", "assay_type": "cell-based, Xenopus laevis", "design": "highest maximum value of outward-rectifying current: unit not given here", "conditions": "for reduction of the current in SYR expressing oocytes: toxin in Ringer at Table 3 concentration (TEA 30 mM, niflumic acid 1 mM)"}, "H440 yeast strain": {"test_system": "H440 yeast strain", "assay": "Complementation of yeast strain H440 (SSO1 and SSO2 deleted) on galactose deficient medium", "conditions": "H440(SYR) on galactose deficient medium"}, "[10]": {"assay": "Rabbit antisera raised against SYR peptides, tested by Western blot", "assay_type": "in vivo", "conditions": "bleeds after injection", "protocol": "Both, the purchased (SP1) and the purified (SP2) peptides were injected, each into two rabbits at the UKC animal facilities (University of Kent, Canterbury). Blood sera were taken after four weeks and the rabbits were injected a second time, After a second bleed two to three weeks later, the rabbits were injected a third time and killed while collecting blood from the heart two weeks later. SDS—PAGE and Western Blotting\nPrior to hybridization with an antibody, the membrane was blocked with 1×TBS (0.15 M NaCl, 3 mM KCl, 25 mM Tris pH 7.4) and 5% Marvel (milk powder) for 1 h. Antibody hybridization occurred in the same buffer (1×TBS, 5% Marvel) plus 0.1% Tween and 0.1% azide overnight with a rabbit generated antibody with an estimated concentration of 1 ng/μl. The antibody solution was then poured off and stored in the fridge until needed again. The membrane was washed three times with 1×TBS and 0.1% Tween solution. […]"}}, "note": "“Also recorded” adds a separate entry of the source. Read-outs that look alike come from different tables or passages of the source."}
{"molecule": "CC1=CC(=O)CC(C)(C)[C@@]1(O)/C=C/C(C)=C\\C(=O)O", "note": "[ABA, abscisic acid]", "values": [{"measurement": "stimulation of the outward-rectifier current", "setting": "[1]; 20 M ABA, 10 mM K+ outside", "value": "~2", "unit": "fold"}, {"measurement": "SYR transcript level in leaves", "setting": "SYR transcript; plants treated by spraying, ABA 20 μM, IAA 30 min", "value": "increased; also recorded: transient induction"}, {"measurement": "time of highest amount of SYR transcript after beginning of treatment", "setting": "SYR transcript; second experiment, total RNA", "value": 30, "unit": "min"}, {"measurement": "time for complete decay of the ABA-stimulated current", "setting": "[2]; 20 μM ABA, mRNA injected oocyte", "value": "≤ 5", "unit": "min"}, {"measurement": "response to a second ABA application", "setting": "[2]; 2 of the 3 ABA responsive cells", "value": "In neither case, a second response was detected"}, {"measurement": "increase of steady-state current evoked by ABA", "setting": "[2]; at +60 mV, mRNA injected oocyte", "value": "> 3", "unit": "μA"}, {"measurement": "number of cells showing the ABA response", "setting": "[2]; of a total of 5 mRNA injected cells tested", "value": 3, "unit": "cells"}, {"measurement": "maximum amplitude of outward-rectifying Cl^− current in response to ABA", "setting": "[2]; oocytes injected with N. tabacum poly(A)+ RNA", "value": 3.1, "unit": "μA"}, {"measurement": "response of water injected oocytes", "setting": "[2]; water injected oocytes, n=8", "value": "did not respond"}, {"measurement": "effect of ABA on instantaneous anion current of a control cell", "setting": "[3]", "value": "four-fold increase"}, {"measurement": "stimulation of the Cl^− current amplitude", "setting": "[3]", "value": 3, "unit": "fold"}, {"measurement": "ABA induced increase of instantaneous anion current, mean, normalized to before ABA", "setting": "[3]; n=3", "value": 3.5, "unit": "fold"}, {"measurement": "inhibition of inward K^+ current in response to ABA", "setting": "[4]", "value": "about 40%"}, {"measurement": "inward-rectifier current in ABA", "setting": "[4]", "value": "24 % of the control"}, {"measurement": "mean IK.in ABA normalized for IK.in before ABA", "setting": "[4]; n=5", "value": "46 % of the original current"}, {"measurement": "inactivation of the inward-rectifying K+ channel current normally caused by ABA", "setting": "[5]", "value": "40-60%"}, {"measurement": "pKa", "setting": "[6]", "value": 4.8}, {"measurement": "inhibition of IK,in by ABA", "setting": "[7]", "value": "~80", "unit": "%"}]}
{"molecule": "[Ba+2]", "note": "[Ba^2+]", "values": [{"measurement": "effect on the current of uninjected oocytes, in words", "setting": "[8]", "value": "a time-dependent one arose"}, {"measurement": "effect on the current in SYR expressing oocytes, in words", "setting": "[9]", "value": "conversion of the instantaneous component into the time-dependent component"}, {"measurement": "reversibility of the toxin effect", "setting": "[9]", "value": "Full recovery"}]}
{"molecule": "CC[N+](CC)(CC)CC", "note": "[TEA, tetraethyl ammonium]", "values": [{"measurement": "effect on the current of uninjected oocytes, in words", "setting": "[8]", "value": "invisible"}, {"measurement": "reversibility of the toxin effect", "setting": "[9]; after wash-out", "value": "reversible"}, {"measurement": "reduction of the current in SYR expressing oocytes", "setting": "[9]", "value": 50, "unit": "%"}]}
{"molecule": "O=C(O)c1cccnc1Nc1cccc(C(F)(F)F)c1", "note": "[niflumic acid]", "values": [{"measurement": "effect on the current of uninjected oocytes, in words", "setting": "[8]", "value": "abolished"}, {"measurement": "reversibility of the toxin effect", "setting": "[9]; after wash-out", "value": "fully recovered"}, {"measurement": "reduction of the current in SYR expressing oocytes", "setting": "[9]", "value": "~100", "unit": "%"}]}
{"molecule": "CC(=O)[O-].[K+]", "note": "[potassium acetate]", "values": [{"measurement": "induction of outward Cl^− currents by weak acid control", "setting": "[2]; 20 μM substituted for ABA, mRNA injected oocytes", "value": "no response was observed"}]}
{"molecule": "ω-conotoxin", "values": [{"measurement": "effect on the current in SYR expressing oocytes, in words", "setting": "[9]", "value": "no effect was detected"}]}
{"molecule": "B1", "values": [{"measurement": "suppression of the SSO1/SSO2 mutation", "setting": "H440 yeast strain", "value": "could not suppress this mutation"}, {"measurement": "half time of increase in outward-rectifying current after impalement", "setting": "[9]; 50 ng cRNA injected, +60 mV", "value": 20, "unit": "min"}, {"measurement": "highest maximum value of outward-rectifying current", "setting": "[9]; 50 ng cRNA injected, +60 mV", "value": 3}, {"measurement": "reversal potential of the outward-rectifying current", "setting": "[9]; [K^+]o 25 mM", "value": "around −35 mV"}]}
{"molecule": "B2", "values": [{"measurement": "ABA sensitivity of outward-rectifying K+ current after Sp2 loading", "setting": "[1]; microelectrodes containing 20 or 100 µM Sp2, 20 µM ABA", "value": "complete loss of sensitivity to ABA"}, {"measurement": "recognition of the peptide by rabbit blood sera", "setting": "[10]", "value": "did cross-react with the peptide"}, {"measurement": "ABA sensitivity of inward-rectifying K+ current after Sp2 loading", "setting": "[4]", "value": "complete loss of sensitivity to ABA"}]}
